The target of the experiment is T1, delta-5-desaturase (Rattus norvegicus, UniProt Q920R3).
T1 construct: the microsomal fraction of a rat river (10 μl), which had been diluted to 3 mg/ml; from tissue; host or cells: rat liver microsomal fraction
T1 sequence (Q920R3 whole entry): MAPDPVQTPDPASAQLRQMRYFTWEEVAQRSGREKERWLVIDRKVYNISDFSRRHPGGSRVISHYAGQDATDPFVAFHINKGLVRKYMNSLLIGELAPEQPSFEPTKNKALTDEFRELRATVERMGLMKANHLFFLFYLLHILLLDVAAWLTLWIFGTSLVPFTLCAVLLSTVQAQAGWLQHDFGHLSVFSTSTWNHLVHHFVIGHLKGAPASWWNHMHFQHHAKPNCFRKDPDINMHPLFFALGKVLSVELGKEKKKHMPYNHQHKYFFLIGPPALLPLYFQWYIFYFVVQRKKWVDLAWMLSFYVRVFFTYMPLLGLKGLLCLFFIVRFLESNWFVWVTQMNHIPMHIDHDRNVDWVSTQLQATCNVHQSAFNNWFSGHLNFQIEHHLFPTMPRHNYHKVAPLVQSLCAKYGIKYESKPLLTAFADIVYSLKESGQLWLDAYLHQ
Kind of experiment: Inhibitory activity on delta-5-desaturase (rat liver microsomal fraction, 14C-eicosatrienoic acid, TLC). The conditions noted are these: test compound at 10 μM, room temperature, 120 minutes. Type of experiment: biochemical. Here is the method:
An inhibitory activity of a test compound on delta-5-desaturase was measured according to the method described herein below. To a DMSO solution of the test compound which had been previously prepared, secondary dilution was carried out by using a buffer (300 mM NaH2PO4 [pH 7.4], 450 mM KCl, 30 mM NaF, 9 mM MgCl2, 4.5 mM glutathione [reduced form], 0.3% BSA [fatty acid free, SIGMA]). This diluent compound (10 μl) was added in a 96-well deep well block made of polypropylene, and then the microsomal fraction of a rat river (10 μl), which had been diluted to 3 mg/ml by using a microsome buffer (10 mM Tris-HCl [pH 7.4], 1 mM EDTA, and 250 mM sucrose), was added thereto. The enzyme reaction was initiated by adding 10 μl of 9 mM NADH, 9 mM ATP, 0.9 mM CoA and 10 μCi/ml (8E,11E,14E)-(1-^14C)eicosa-8,11,14-trienoic acid (PerkinElmer Inc.). The enzyme reaction was carried out at room temperature for 120 minutes, and then terminated by addition of 2.5 M NaOH (10 μl). Upon the completion of the reaction, the plate was covered with plate seal and incubated overnight in a dry heater of which temperature was set at 55° C. for saponification. Based on Bligh & Dyer method which had been described in a known document, Canadian Journal of Biochemistry and Physiology (Can. J. Biochem. Physiol.), Vol. 37, page 911, 1959), the solvent extraction of fatty acid was carried out by adding 200 μl of formic acid:methanol:chloroform (1:6:3), keeping the mixture as a single layer for a while, stirring the mixture to a sufficient level, and adding 120 μl of pure water to separate the mixture into two layers. 10 μl of the bottom chloroform layer was spotted on a reverse phase TLC plate (RP-18, 1154230001, Merck Japan, Ltd.) and then developed with acetonitrile:pure water:acetic acid (95:4.5:0.5). The TLC plate obtained after drying was transferred to an Imaging Plate (Fuji Photo Film Co., Ltd.) for more than 5 hours. Detection was carried out by using BAS-5000 (Fuji Photo Film Co., Ltd.). Numerization of thus-obtained image was carried out by using Multi Gauge Ver 2.3 (Fuji Photo Film Co., Ltd.) and an inhibitory ratio (%) of the test compound at 10 μM on delta-5-desaturase was obtained.
As to `O=c1c2[nH]ccc2nc(SCCCN2CCOCC2)n1-c1ccc(OCC(F)(F)F)cc1` [Example 112, 2-[(3-Morpholin-4-ylpropyl)sulfanyl]-3-[4-(2,2,2-trifluoroethoxy)phenyl]-3,5-dihydro-4H-pyrrolo[3,2-d]pyrimidin-4-one], the inhibition – broadly, the change of the read-out against control, counted positive when it falls – at 10 µM came to 102%.

As to `CCOc1ccc(-n2c(SCCCC(=O)NCC#N)nc3cc[nH]c3c2=O)cc1` [Example 63, N-(cyanomethyl)-4-{[3-(4-ethoxyphenyl)-4-oxo-4,5-dihydro-3H-pyrrolo[3,2-d]pyrimidin-2-yl]sulfanyl}butanamide], the inhibition at 10 µM came out at 98%.

As to `CS(=O)(=O)CCCSc1nc2cc[nH]c2c(=O)n1-c1ccc(OCC(F)(F)F)cc1` [Example 80, 2-{[3-(Methylsulfonyl)propyl]sulfanyl}-3-[4-(2,2,2-trifluoroethoxy)phenyl]-3,5-dihydro-4H-pyrrolo[3,2-d]pyrimidin-4-one], the inhibition at 10 µM is 98%.

For the molecule `O=C(CCCSc1nc2cc[nH]c2c(=O)n1-c1ccc(OCC(F)(F)F)cc1)N1CCCCC1` [Example 77, 2-[(4-Oxo-4-piperidin-1-ylbutyl)sulfanyl]-3-[4-(2,2,2-trifluoroethoxy)phenyl]-3,5-dihydro-4H-pyrrolo[3,2-d]pyrimidin-4-one], the inhibition at 10 µM turned out to be 100%.

`CCOCCOCCSc1nc2cc[nH]c2c(=O)n1-c1ccc(OCC(F)(F)F)cc1` [Example 79, 2-{[2-(2-Ethoxyethoxy)ethyl]sulfanyl}-3-[4-(2,2,2-trifluoroethoxy)phenyl]-3,5-dihydro-4H-pyrrolo[3,2-d]pyrimidin-4-one]: the inhibition at 10 µM is 99%.

With `O=C(CCCSc1nc2cc[nH]c2c(=O)n1-c1ccc(OCC(F)(F)F)cc1)N1CCSCC1` [Example 136, 2-[(4-Oxo-4-thiomorpholin-4-ylbutyl)sulfanyl]-3-[4-(2,2,2-trifluoroethoxy)phenyl]-3,5-dihydro-4H-pyrrolo[3,2-d]pyrimidin-4-one], the inhibition at 10 µM was found to be 99%.

As to `O=c1c2cc[nH]c2nc(SCC(O)COC2CCOCC2)n1-c1ccc(OCC(F)(F)F)cc1` (stereo not drawn) [Example 219, 2-{[2-Hydroxy-3-(tetrahydro-2H-pyran-4-yloxy)propyl]sulfanyl}-3-[4-(2,2,2-trifluoroethoxy)phenyl]-3,7-dihydro-4H-pyrrolo[2,3-d]pyrimidin-4-one], the inhibition at 10 µM came to 102%.

Turning to `O=c1c2cc[nH]c2nc(OCC(F)F)n1-c1ccc(OCC(F)(F)F)cc1` [Example 244, 2-(2,2-Difluoroethoxy)-3-[4-(2,2,2-trifluoroethoxy)phenyl]-3,7-dihydro-4H-pyrrolo[2,3-d]pyrimidin-4-one], the inhibition at 10 µM worked out at 101%.

As to `CC1(COc2ccc(-n3c(SCCCC(=O)NCCC#N)nc4cc[nH]c4c3=O)cc2)CC1` [Example 93, N-(2-cyanoethyl)-4-[(3-{4-[(1-methylcyclopropyl)methoxy]phenyl}-4-oxo-4,5-dihydro-3H-pyrrolo[3,2-d]pyrimidin-2-yl)sulfanyl]butanamide], the inhibition at 10 µM was found to be 101%.

`O=c1c2cc[nH]c2nc(SCC2CC2)n1-c1ccc(OCC(F)(F)F)cc1` [Example 255, 2-[(Cyclopropylmethyl)sulfanyl]-3-[4-(2,2,2-trifluoroethoxy)phenyl]-3,7-dihydro-4H-pyrrolo[2,3-d]pyrimidin-4-one]: the inhibition at 10 µM was 101%.

Turning to `CCSc1nc2c(c(=O)n1-c1ccc(OCC3CC3)cc1)CC(=O)N2` [Example 300, 3-[4-(Cyclopropylmethoxy)phenyl]-2-(ethylsulfanyl)-5,7-dihydro-3H-pyrrolo[2,3-d]pyrimidine-4,6-dione], the inhibition at 10 µM worked out at 101%.

On to `O=C1Cc2c(nc(Oc3ccc(F)cc3)n(-c3ccc(OCC(F)(F)C(F)(F)F)cc3)c2=O)N1` [Example 311, 2-(4-Fluorophenoxy)-3-[4-(2,2,3,3,3-pentafluoropropoxy)phenyl]-5,7-dihydro-3H-pyrrolo[2,3-d]pyrimidine-4,6-dione], for which the inhibition at 10 µM was found to be 98%.

Turning to `CCn1ccc2c(=O)n(-c3ccc(OCC(F)(F)F)cc3)c(SCCCC(=O)NCCC#N)nc21` [Example 193], the inhibition at 10 µM is 100%.

Regarding `O=c1c2cc[nH]c2nc(OCC(F)(F)F)n1-c1ccc(OCC(F)(F)F)c(F)c1` [Example 264, 3-[3-Fluoro-4-(2,2,2-trifluoroethoxy)phenyl]-2-(2,2,2-trifluoroethoxy)-3,7-dihydro-4H-pyrrolo[2,3-d]pyrimidin-4-one], the inhibition at 10 µM turned out to be 101%.

With `O=c1c2cc[nH]c2nc(SC2CC2)n1-c1ccc(OCC(F)(F)F)cc1` [Example 256, 2-(Cyclopropylsulfanyl)-3-[4-(2,2,2-trifluoroethoxy)phenyl]-3,7-dihydro-4H-pyrrolo[2,3-d]pyrimidin-4-one], the inhibition at 10 µM was determined as 104%.

With `CCCSc1nc2cc[nH]c2c(=O)n1-c1ccc(OCC(F)(F)F)cc1` [Example 105, 2-(Propylsulfanyl)-3-[4-(2,2,2-trifluoroethoxy)phenyl]-3,5-dihydro-4H-pyrrolo[3,2-d]pyrimidin-4-one], the inhibition at 10 µM was 100%.

On to `CSc1nc2[nH]ccc2c(=O)n1-c1ccc(OCC(F)(F)F)c(F)c1` [Example 237, 3-[3-Fluoro-4-(2,2,2-trifluoroethoxy)phenyl]-2-(methylsulfanyl)-3,7-dihydro-4H-pyrrolo[2,3-d]pyrimidin-4-one], for which the inhibition at 10 µM stood at 98%.

As to `O=C(CCCSc1nc2cc[nH]c2c(=O)n1-c1ccc(OCC(F)(F)F)cc1)NC1CC1` [Example 76, N-cyclopropyl-4-({4-oxo-3-[4-(2,2,2-trifluoroethoxy)phenyl]-4,5-dihydro-3H-pyrrolo[3,2-d]pyrimidin-2-yl}sulfanyl)butanamide], the inhibition at 10 µM is 99%.

As for `N#CCCNC(=O)CCCSc1nc2[nH]ccc2c(=O)n1-c1ccc(OCC2CC2)cc1` [Example 185, N-(2-cyanoethyl)-4-({3-[4-(cyclopropylmethoxy)phenyl]-4-oxo-4,7-dihydro-3H-pyrrolo[2,3-d]pyrimidin-2-yl}sulfanyl)butanamide], the inhibition at 10 µM turned out to be 97%.

Take `O=c1c2[nH]ccc2nc(SCCCO)n1-c1ccc(OCC(F)(F)F)cc1` [Example 116, 2-[(3-Hydroxypropyl)sulfanyl]-3-[4-(2,2,2-trifluoroethoxy)phenyl]-3,5-dihydro-4H-pyrrolo[3,2-d]pyrimidin-4-one]: the inhibition at 10 µM amounted to 101%.

Take `CC(C)(O)CCCSc1nc2cc[nH]c2c(=O)n1-c1ccc(OCC(F)(F)F)cc1` [Example 123, 2-[(4-Hydroxy-4-methylpentyl)sulfanyl]-3-[4-(2,2,2-trifluoroethoxy)phenyl]-3,5-dihydro-4H-pyrrolo[3,2-d]pyrimidin-4-one]: the inhibition at 10 µM is 101%.

Take `CCSc1nc2cc[nH]c2c(=O)n1-c1ccc(OCC(F)(F)F)cc1` [Example 104, 2-(Ethylsulfanyl)-3-[4-(2,2,2-trifluoroethoxy)phenyl]-3,5-dihydro-4H-pyrrolo[3,2-d]pyrimidin-4-one]: the inhibition at 10 µM was 100%.

As for `COCCCSc1nc2cc[nH]c2c(=O)n1-c1ccc(OCC(F)(F)F)cc1` [Example 132, 2-[(3-Methoxypropyl)sulfanyl]-3-[4-(2,2,2-trifluoroethoxy)phenyl]-3,5-dihydro-4H-pyrrolo[3,2-d]pyrimidin-4-one], the inhibition at 10 µM amounted to 107%.

With `O=c1c2[nH]ccc2nc(SCCCS(=O)(=O)NC2CC2)n1-c1ccc(OCC(F)(F)F)cc1` [Example 108, N-cyclopropyl-3-({4-oxo-3-[4-(2,2,2-trifluoroethoxy)phenyl]-4,5-dihydro-3H-pyrrolo[3,2-d]pyrimidin-2-yl}sulfanyl)propane-1-sulfonamide], the inhibition at 10 µM stood at 101%.

Consider `CC(C)Sc1nc2c(c(=O)n1-c1ccc(OCC(F)(F)F)cc1)CC(=O)N2` [Example 285, 2-[(1-Methylethyl)sulfanyl]-3-[4-(2,2,2-trifluoroethoxy)phenyl]-5,7-dihydro-3H-pyrrolo[2,3-d]pyrimidine-4,6-dione], for which the inhibition at 10 µM was determined as 96%.

Consider `CC(C)(O)CCSc1nc2cc[nH]c2c(=O)n1-c1ccc(OCC(F)(F)F)cc1` [Example 131, 2-[(3-Hydroxy-3-methylbutyl)sulfanyl]-3-[4-(2,2,2-trifluoroethoxy)phenyl]-3,5-dihydro-4H-pyrrolo[3,2-d]pyrimidin-4-one], for which the inhibition at 10 µM was 108%.

Regarding `N#CCCNC(=O)CCCSc1nc2[nH]ccc2c(=O)n1-c1ccc(OCC2CC2(F)F)cc1` (stereo not drawn) [Example 177, N-(2-cyanoethyl)-4-[(3-{4-[(2,2-difluorocyclopropyl)methoxy]phenyl}-4-oxo-4,7-dihydro-3H-pyrrolo[2,3-d]pyrimidin-2-yl)sulfanyl]butanamide], the inhibition at 10 µM was 100%.

The record behind these values is patent publication US20100190747A1, “Fused ring compound and use thereof” (priority 2009, published 2010).
